# Experimental data from patent US9981928B2, “Aryl sulfide derivatives and aryl sulfoxide derivatives as acaricides and insecticides” (BAYER CROPSCIENCE AKTIENGESELLSCHAFT, priority 2013, dated 2018).
# Values joined by “and” are separate entries in the source; they are usually repeats but may differ in a detail not shown here. Identical values can stand only once. Like-named read-outs stand apart in the source and are kept apart here.
# Tests used:
# [1] = log P determination by HPLC on reversed-phase columns (C 18), analogously to OECD Guideline 117; format: physicochemical; conditions: for chromatographic logP: reversed-phase C18 HPLC column; for logP (HCOOH): LC-MS in the acidic range, pH 2.7, 0.1% aqueous formic acid / acetonitrile; for logP (HCOOH) / logP (neutral): HPLC reversed-phase C 18; for logP (neutral): LC-MS in the neutral range, pH 7.8, 0.001 molar aqueous ammonium hydrogencarbonate / acetonitrile
# How it was run: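 Reversed-phase C18 HPLC per OECD 117 with LC-MS detection and a linear 10→95% acetonitrile gradient. Acidic log P run at pH 2.7 with 0.1% formic acid in both eluents. Neutral log P run at pH 7.8 with 0.001 M aqueous ammonium hydrogencarbonate.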
# [2] = tested on: greenhouse red spider mite (Tetranychus urticae); test: Tetranychus urticae spray test, OP-resistant (TETRUR), bean leaf disks; format: in vivo; conditions: bean leaf disks, after 6 days; for pest or weed control at 500 g/ha: Tetranychus urticae, foliar, 144 h, read-out: efficacy in %
# How it was run: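 Bean leaf disks carrying all stages of OP-resistant Tetranychus urticae sprayed with compound in acetone/dimethylformamide diluted in emulsifier water. Kill assessed after 6 days as % efficacy, 100% meaning all mites dead.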
# [3] = tested on: southern root-knot nematode (Meloidogyne incognita); test: Meloidogyne incognita test (MELGIN); format: in vivo; conditions: lettuce in sand; application rate 20 ppm; after 14 days
# Method: Meloidogvne incognita test (MELGIN)
# Solvent: 125.0 parts by weight of acetone
# To produce a suitable preparation of active compound, 1 part by weight of active compound is mixed with the stated amount of solvent and the concentrate is diluted with water to the desired concentration.
# Vessels are filled with sand, active compound solution, an egg/larvae suspension of the southern root-knot nematode (Meloidogyne incognita) and lettuce seeds. The lettuce seeds germinate and the plants develop. The galls develop on the roots.
# After 14 days, the nematicidal efficacy in % is determined by the formation of galls. 100% means that no galls were found; 0% means that the number of galls on the treated plants corresponds to the untreated control.
# [4] = acidic range, pH 2.7, 0.1% aqueous formic acid and acetonitrile, read-out: log P[a] / log P(HCOOH)
# [5] = neutral range, pH 7.8, 0.001 molar aqueous ammonium hydrogencarbonate and acetonitrile, read-out: log P[b] / log P(neutral)
SMILES,logP (HCOOH) [1],logP (neutral) [1],efficacy in % ([2]; application rate 500 g/ha),further results
"Cc1ccc(-n2c(=O)n(C)c(=O)n2C)cc1SCC(F)(F)F [Example 20, 1,4-Dimethyl-2-{4-methyl-3-[(2,2,2-trifluoroethyl)sulfanyl]phenyl}-1,2,4-triazolidine-3,5-dione]",,,,"chromatographic logP [1, 4]: 2.59; chromatographic logP [1, 5]: 2.58; pest or weed control at 500 g/ha ([2]; application rate 500 g/ha): 100%; nematicidal efficacy in % (formation of galls) [3]: 90%"
Cn1c(=O)n(C2CC2)c(=O)n1-c1ccc(C#N)c(SCC(F)(F)F)c1 [Example 44],2.53,2.45,,nematicidal efficacy in % (formation of galls) [3]: 90%
Cn1c(=O)n(C2CC2)c(=O)n1-c1ccc(Br)c([S+]([O-])CC(F)(F)F)c1 (stereo not drawn) [Example 45],2.27,2.24,,nematicidal efficacy in % (formation of galls) [3]: 90%
Cn1c(=O)n(C)n(-c2cc([S+]([O-])CC(F)(F)F)c(Br)cc2F)c1=O (stereo not drawn) [Example 69],2.01,1.98,,nematicidal efficacy in % (formation of galls) [3]: 90%
Cn1c(=O)n(C)n(-c2cc([S+]([O-])CC(F)(F)F)c(F)cc2F)c1=O (stereo not drawn) [Example 70],1.64,1.59,,nematicidal efficacy in % (formation of galls) [3]: 90%
Cc1cc(F)c(-n2c(=O)n(-c3ccccc3)c(=O)n2C)cc1[S+]([O-])CC(F)(F)F (stereo not drawn) [Example 163],2.44,2.38,90%,
Cc1cc(F)c(-n2c(=O)n(C3CC3)c(=O)n2CC(F)(F)F)cc1[S+]([O-])CC(F)(F)F (stereo not drawn) [Example 164],2.58,2.54,90%,
C=CCn1c(=O)n(C2CC2)c(=O)n1-c1cc([S+]([O-])CC(F)(F)F)c(C)cc1F (stereo not drawn) [Example 165],2.32,2.30,90%,
C=CCn1c(=O)n(CC(F)(F)F)n(-c2cc([S+]([O-])CC(F)(F)F)c(C)cc2F)c1=O (stereo not drawn) [Example 166],2.72,2.89,90%,
Cc1cc(F)c(-n2c(=O)n(-c3ccccc3)c(=O)n2CC(F)(F)F)cc1[S+]([O-])CC(F)(F)F (stereo not drawn) [Example 167],3.05,3.01,90%,
Cc1cc(F)c(-n2c(=O)n(CC(F)F)c(=O)n2CC(F)(F)F)cc1[S+]([O-])CC(F)(F)F (stereo not drawn) [Example 168],2.60,2.58,90%,
Cc1cc(F)c(-n2c(=O)n(CC3CC3)c(=O)n2C)cc1[S+]([O-])CC(F)(F)F (stereo not drawn) [Example 169],2.30,2.33,,efficacy in % ([2]; application rate 100 g/ha): 90%
COCCCn1c(=O)n(C)n(-c2cc([S+]([O-])CC(F)(F)F)c(C)cc2F)c1=O (stereo not drawn) [Example 170],1.97,1.98,90%,
CCn1c(=O)n(C2CC2)c(=O)n1-c1cc([S+]([O-])CC(F)(F)F)c(C)cc1F (stereo not drawn) [Example 171],2.18,2.15,100%,
CCCn1c(=O)n(C2CC2)c(=O)n1-c1cc([S+]([O-])CC(F)(F)F)c(C)cc1F (stereo not drawn) [Example 172],2.46,2.42,90%,
Cc1cc(F)c(N2C(=O)C(C)(C)C(=O)N2c2ccccc2)cc1SCC(F)(F)F [Example 173],3.64,3.58,90%,
"Cc1cc(F)c(N2C(=O)C(C)(C)C(=O)N2C)cc1SCC(F)(F)F [Example 174, 1-{2-Fluoro-4-methyl-5-[(2,2,2-trifluoroethyl)sulfanyl]phenyl}-2,4,4-trimethylpyrazolidine-3,5-dione]",,,,"chromatographic logP [1, 4]: 2.84; chromatographic logP [1, 5]: 2.79; pest or weed control at 500 g/ha ([2]; application rate 500 g/ha): 100%"
CCC1(CC)C(=O)N(C)N(c2cc(SCC(F)(F)F)c(C)cc2F)C1=O [Example 175],3.41,3.40,100%,
CCC1(CC)C(=O)N(C)N(c2cc([S+]([O-])CC(F)(F)F)c(C)cc2F)C1=O (stereo not drawn) [Example 176],2.37,2.31,100%,
Cc1cc(F)c(N2C(=O)C(C)(C)C(=O)N2Cc2ccccc2)cc1SCC(F)(F)F [Example 178],3.80,3.76,100%,
Cc1cc(F)c(N2C(=O)C3(CCC3)C(=O)N2C)cc1[S+]([O-])CC(F)(F)F (stereo not drawn) [Example 180],1.99,1.97,100%,

SMILES,logP (HCOOH) [1],logP (neutral) [1],efficacy in % ([2]; application rate 500 g/ha),further results
"Cc1cc(F)c(-n2c(=S)n(C3CC3)c(=S)n2C)cc1SCC(F)(F)F [Example 182, 4-cyclopropyl-1-{2-fluoro-4-methyl-5-[(2,2,2-trifluoroethyl)sulfanyl]phenyl}-2-methyl-1,2,4-triazolidine-3,5-dithione]",,,,"chromatographic logP [1, 4]: 3.83; chromatographic logP [1, 5]: 3.76; nematicidal efficacy in % (formation of galls) [3]: 90%"
Cc1cc(F)c(N2C(=O)C(=O)N(C3CC3)C2=O)cc1[S+]([O-])CC(F)(F)F (stereo not drawn) [Example 183],2.31,,100%,
Cc1cc(C)c([S+]([O-])CC(F)(F)F)cc1N1C(=O)C(=O)N(CC(F)F)C1=O (stereo not drawn) [Example 184],2.44,,100%,
Cc1cc(C)c(N2C(=O)C(=O)N(CC(F)(F)F)C2=S)cc1SCC(F)(F)F [Example 187],4.21,,90%,
Cc1cc(C)c([S+]([O-])CC(F)(F)F)cc1N1C(=O)C(=O)N(CC(F)(F)F)C1=S (stereo not drawn) [Example 188],3.18,,90%,
Cc1cc(F)c(N2C(=O)C(=O)N(CC(F)(F)F)C2=S)cc1SCC(F)(F)F [Example 189],3.95,,90%,
Cc1cc(F)c(N2C(=O)C(=O)N(CC(C)C)C2=S)cc1SCC(F)(F)F [Example 191],4.62,4.54,100%,
Cc1cc(F)c(N2C(=O)C(=O)N(CC(C)(C)C)C2=S)cc1SCC(F)(F)F [Example 192],4.89,4.80,90%,
Cc1cc(F)c(N2C(=O)C(=O)N(C(C)(C)C)C2=S)cc1SCC(F)(F)F [Example 193],4.50,4.42,100% and 90%,
Cc1cc(F)c(N2C(=O)C(=O)N(CC(C)C)C2=S)cc1[S+]([O-])CC(F)(F)F (stereo not drawn) [Example 194],3.56,3.53,90%,
Cc1cc(F)c(N2C(=O)C(=O)N(CC(C)(C)C)C2=S)cc1[S+]([O-])CC(F)(F)F (stereo not drawn) [Example 195],3.85,3.79,90%,
Cc1cc(F)c(N2C(=O)C(=O)N(C(C)(C)C)C2=S)cc1[S+]([O-])CC(F)(F)F (stereo not drawn) [Example 196],3.45,3.41,90%,
CCCCN1CC(=O)N(c2cc(SCC(F)(F)F)c(C)cc2F)C1=O [Example 202],3.39,3.35,100%,
CCCCN1CC(=O)N(c2cc([S+]([O-])CC(F)(F)F)c(C)cc2F)C1=O (stereo not drawn) [Example 203],2.47,2.43,90%,
Cc1cc(F)c(N2C(=O)CN(Cc3ccccc3)C2=O)cc1SCC(F)(F)F [Example 204],3.49,3.48,100%,
Cc1cc(F)c(N2C(=O)CN(Cc3ccccc3)C2=O)cc1[S+]([O-])CC(F)(F)F (stereo not drawn) [Example 205],2.60,2.52,90%,
Cc1cc(F)c(N2C(=O)N(C)C(=O)C2C)cc1SCC(F)(F)F (stereo not drawn) [Example 212],2.92,,90%,
Cc1cc(F)c(N2C(=O)N(C)C(=O)C2C)cc1[S+]([O-])CC(F)(F)F (stereo not drawn) [Example 213],1.91,,100%,
Cc1cc(F)c(N2C(=O)N(C3CC3)C(=O)C2C)cc1SCC(F)(F)F (stereo not drawn) [Example 214],3.12,,100%,
Cc1cc(F)c(N2C(=O)N(C3CC3)C(=O)C2C)cc1[S+]([O-])CC(F)(F)F (stereo not drawn) [Example 215],2.15,,100%,
"Cc1cc(F)c(N2C(=O)N(C)C(=O)C2(C)C)cc1SCC(F)(F)F [Example 217, 1-[2-Fluoro-4-methyl-5-(2,2,2-trifluoroethylsulfanyl)phenyl]-3,5,5-trimethylimidazolidine-2,4-dione]",,,,"chromatographic logP [1, 4]: 3.11; pest or weed control at 500 g/ha ([2]; application rate 500 g/ha): 90%"
